Results as given in US11999697B2, “Methods and compositions for inhibition of dihydroorotate dehydrogenase” (OHIO STATE INNOVATION FOUNDATION, priority 2018, dated 2024).
Counter-ions that a name gives are not always drawn.

How the values were obtained:
[1] = test system: IDH2-R140Q/Flt3-ITD spleen cells (murine AML); test: IDH2-R140Q/Flt3-ITD adoptive transfer model; format: in vivo, NCG mice; conditions: daily oral gavage; Cpd3 50 mg/kg, enasidenib 100 mg/kg
Description: Leukemic cells derived from a spontaneous murine model of Idh2/Flt3 AML, as reported by Shih et al (Cancer Discov. 7(5):494-505), were engrafted via adoptive transfer to generate an aggressive model of AML suitable for testing of therapeutic agents. Briefly, 6-8 week old mice harboring a heterozygous internal tandem duplication of FMS-like tyrosine kinase 3 (Flt3-ITD), a heterozygous point mutation of isocitrate dehydrogenase 2 (Idh2-R140Q) preceeded by a loxP flanked STOP codon, and Cre recombinase under the MX dynamin like GTPase 1 (Mx1) promoter were injected i.p. with polyinosinic:polycytidylic acid (poly(I:C)), activating Cre recombinase and inducing hematopoietic-specific expression of the Idh2-R140Q mutation. Spleen cells from these mice were collected after the development of lethal AML (defined by study removal criteria), typically 8-14 months post-poly(I:C) injection. 1×10^5 spleen cells from a single leukemic donor were engrafted by tail vein injection into 6 week old immune deficient NOD-Prkdc^em26Cd52//2rg^em26Cd22/NjuCrl mice (NCG; Charles River). At one week post-engraftment, animals were randomized to vehicle (5% EtOH, 10% Kolliphor EL, in PBS), enasidenib (100 mg/kg), and HOSU-3 (50 mg/kg) treatment arms and dosed by daily oral gavage. Personnel responsible for animal monitoring, dosing, and decisions regarding euthanasia were blinded to treatment arms. Survival was assessed using Kaplan-Meier analysis and p-values were determined using the log-rank test and adjusted using Holm's method.

[2] = test system: AML cell lines (MOLM13, MV4-11, THP1, HL-60, and OCI-AML3)
Description: MTS assay for cell growth/viability: Mitochondrial activity was measured to determine cell proliferation using an MTS assay (tetrazolium dye 3′[4,5-dimethylthiazol-2-yl]-2,5-diphenyl-tetrazolium bromide). Metabolically active cells convert MTS tetrazolium salt into a purple formazan product that is soluble in tissue culture medium. The amount of formazan measured at 490 nm absorbance is proportional to the number of proliferating cells. […] Triplicate wells were set up for each condition. At 96 hours, the MTS reagent was added and after approximately 4 hours the plates were read in a spectrophotometer. MTS assays in primary AML cells were done in a similar manner as the cell lines with the following changes: 100K cells were plated per well, and the MTS was done in the presence of an HS5 stromal cell line to support the in vitro growth of the primary cells. Primary cells were incubated with MTS for approximately 8-12 hours (varies with the samples) before reading the absorbance.
Cell proliferation assays were carried out using the MTS assay described herein using five AML cell lines (i.e., MOLM13, MV4-11, THP1, HL-60, and OCI-AML3) with varied genetic backgrounds. The assays were carried out in a blinded fashion.

SMILES | Median survival [1] | cytotoxicity compared to the free acid form and brequinar [2]
CC(C)(O)CNc1nc(Nc2ccnc(C(F)(F)F)c2)nc(-c2cccc(C(F)(F)F)n2)n1 [Enasidenib, reference compound] | 34 days | 
CCOc1ccc(-c2ccc(-c3cc(C(=O)O)c4cc(F)ccc4n3)cc2)cc1 [sodium salt form of Cpd3, Sodium 2-(4′-Ethoxy-[1,1′-biphenyl]-4-yl)-6-fluoroquinoline-4-carboxylate] |  | equally cytotoxic against AML cell lines
